# Test results reported in patent US20230293509A1, “METHOD AND COMPOUND FOR USE, IN TREATING AND/OR PREVENTING NETOSIS” (JUBILANT EPIPAD LLC, priority 2020, published 2023).
# Columns and labels:
# [1] = system: Bleomycin (BLM)-induced mice fibrosis; test: Bleomycin induced lung fibrosis model; type: in vivo, C57BL/6 male mice; conditions: 50 mg/kg, PO, BID
# Description: Bleomycin (BLM)-induced mice fibrosis is a well-established animal model used to study pathogenesis of lung fibrosis and to estimate the potential anti-fibrotic agents. C57BL/6 male mice at 6-8 weeks of age were purchased from vivo biotech India (under the license from Taconic). The procedures involving the care and use of animals in the study was reviewed and approved by the Institutional Animal Care and Use Committee (IAEC/JDC/2018-161R) prior to conduct. During the study, the care and use of animals was in accordance with the principles outlined in the Guide for the Care and Use of Laboratory Animals, 8th Edition, 2010 (National Research Council) and every effort was made to minimize suffering. The animals were acclimatized for 7 days prior to experimental use. Mice were caged with free access to food and fresh water in a temperature-controlled room (22° C.-24° C.) on a 12 h light/dark cycle. Pulmonary fibrosis was induced by invasive method in animals using single intra-tracheal administration of 50 μg bleomycin prepared in 50 μL of saline under isoflurane anaesthesia. […] Animals were monitored and evaluated for their body weight loss. […] Fibronectin was measured as a PD biomarker by RT-qPCR and fold change in mRNA level was calculated after normalizing to GAPDH. […] The Modified Ashcroft Index score was determined for the vehicle-treated control mice and the test compound treated mice.
# [2] = system: silica induced lung fibrosis; test: Silica induced pro-fibrotic lung model; type: in vivo, C57BL/6 female mice; conditions: 50 mg/kg PO, BID, day 7 to 11, comparable to Nintedanib 100 mg/kg, QD
# Description: The instillation of silica into the murine lung results in the development of fibrotic nodules that resemble simple silicotic nodular fibrosis, which develop in humans following some occupational exposures to dust and particulate aerosols. Silica can be delivered to rodents via aerosolization, intratracheal administration or oropharyngeal aspiration. C57BL/6 female mice at an age of 6-8 weeks were instilled with silica particles (2.5 mg/mouse) by non-surgical intratracheal (IT) method. The day of silica instillation was defined as day 0. Test compound was administered twice daily and standard of care was dosed once daily from day 7 to 11 for therapeutic intervention. Animals were monitored and evaluated for their clinical signs and body weight loss. Animals were euthanized on day 11 and the lungs were weighed and biomarkers were analyzed in lung.
# [3] = system: 4T1 cells; test: Murine breast cancer efficacy model, 4T1 allograft; type: in vivo, Balb/C female mice; conditions: 4T1 bearing mice, oral gavage twice daily for 14 days
# Description: (§1) PAD4 is highly expressed in malignant tumours of various cell types, Here, the mouse mammary carcinoma of 4T1 and EMT6 cells were used as an experimental model. Mouse 4T1, and EMT-6, a breast cancer cell line was sourced from American Type Culture Collection (ATCC), USA. Cells were grown according to the product information. To establish allografts, the cells were harvested by trypsinization when they reached around 70 to 80% confluence. After harvesting, Balb/C female mice (7-8 weeks) were implanted with 4T1 (1 million cells/site) and EMT-6 (0.5 million cells/site) subcutaneously in the dorsal right flank of mice using a 1 mL BD syringe attached to a 24-gauge needle. When the tumors became palpable tumor measurement was initiated and at an approximate tumor volume of ˜110 and 93 mm3, respectively. Animals were randomized into different treatment groups keeping tumor volume and the number of animals/group similar across the groups and compound 143 treatment was initiated. […]
# (§2) Tumor dimensions (length and breadth) were measured on days 1 (animal randomization based on tumor volume) and thrice weekly thereafter until study termination.
# (§3) Tumor volumes were calculated using the formula (b2*1)*0.52 where 1=length, b=breadth (Dusan Djokovic et al., BMC Cancer, 2010, 10:641). […]
# [4] = system: EMT-6 cells; test: Murine breast cancer efficacy model, EMT-6 allograft; type: in vivo, Balb/C female mice; conditions: EMT-6 bearing mice, oral gavage twice daily for 13 days
# Description: as §1, §2, §3
# [5] = system: DSS-induced colitis; test: Dextran sulfate sodium (DSS) induced colitis model; type: in vivo, C57BL/6 male mice; conditions: 1 mg/kg, QD, oral; day 10
# Description: Ulcerative colitis (UC) is an intermittent inflammatory bowel disease of the colonic mucosa, with periods of exacerbated symptoms (the active phase of the disease), and periods that are relatively symptom-free (remission phase of disease). Among various chemical induced colitis models, DSS-induced colitis model is widely used because of its simplicity and many similarities with human ulcerative colitis. C57BL/6 male mice at 6-8 weeks of age were purchased from vivo biotech India (under the license from Taconic). The procedures involving the care and use of animals in the study was reviewed and approved by the Institutional Animal Care and Use Committee (IAEC/JDC/2018-161R) prior to conduct. During the study, the care and use of animals was in accordance with the principles outlined in the Guide for the Care and Use of Laboratory Animals, 8th Edition, 2010 (National Research Council) and every effort was made to minimize suffering. The animals were acclimatized for ˜10 days prior to experimental use. Mice were caged with free access to food and fresh water in a temperature-controlled room (22° C.-24° C.) on a 12 h light/dark cycle. […]
Compound,"Lung weight ([1]; day 0 to 14, compared with Nintedanib 100 mg/kg, QD)","Fibronectin mRNA in lung (RT-qPCR) ([1]; day 0 to 14, compared with Nintedanib)",Fibronectin level in lung [2],Lung weight [2],Body weight changes [3],Body weight changes [4],Disease reversal (DAI) compared to disease control [5] [%]
"N[C@@H]1CCCN(C(=O)c2cc3c4c(c2)nc(-c2cc5cccc(Cl)c5n2CC2CC2)n4CCO3)C1 [Compound 143, (R)-(3-aminopiperidin-1-yl)(2-(7-chloro-1-(cyclopropylmethyl)-1H-indol-2-yl)-3,4-dihydro-5-oxa-1,2a-diazaacenaphthylen-7-yl)methanone]",reduction in lung weight comparable to standard of care Nintedanib,stronger reduction of fibronectin mRNA as compared to Nintedanib,significant decrease,significant decrease,no significant body weight changes,no significant body weight changes,
CCCCCCCCc1ccc(CCC(N)(CO)CO)cc1 [Fingolimod],,,,,,,~58.9
